Laboratory results from patent US20260234566A1, “CELL LINES FOR EXPRESSION OF LHCG RECEPTOR” (Ares Trading S.A., priority 2023, published 2026).
Values joined by “and” are separate entries in the source; they are usually repeats but may differ in a detail not shown here. Identical values can stand only once.

What was measured:
[1] = test system: adenylate cyclase (AC); assay: Reporter Gene Assay with forskolin stimulation, HEK 293-T WT; assay type: cell-based, human; conditions: single wells
Protocol: (§1) Second transfection efficiency evaluation. In order to assess the second transfection efficiency, a Reporter Gene Assay (RGA) was performed. […] HEK 293-T LHCGR Luciferase cells were stimulated with forskolin. As described in literature, forskolin is a diterpene able to activate the adenylate cyclase (AC) allowing the increasing of intracellular cAMP in a wide variety of cell types. Exploiting forskolin ability, the RGA assay enables the evaluation of Reporter Gene Transcription in response to cAMP accumulation without involving the LHCG receptor. The luminescence emitted after Reporter Gene Transcription, was quantified using reagents available on the market. HEK 293-T LHCGR Luciferase and HEK 293-T without transfection were seeded in a 96 well plate and stimulated with different concentration of forskolin. After incubation, the ONE-Glo EX Luciferase assay system (Promega, E8120) was added in each well and, after 10 minutes shaking, results were acquired using the plate reader.

[2] = test system: adenylate cyclase (AC); assay: Reporter Gene Assay with forskolin stimulation, HEK 293-T LHCGR Luciferase; assay type: cell-based, human; conditions: single wells
Protocol: as §1, with “reader. Second transfection stability. HEK 293-T LHCGR Luciferase were stimulated with forskolin 4 μM or left unstimulated. Results were reported as a fold change of treated cells over unstimulated control. All % CVs were calculated among fold changes obtained for the three banks and resulted below 25%. The mean and the SD of the 3 banks were calculated and used to generate the graphs in FIG. 4B.” for “reader.”

For `C=C[C@@]1(C)CC(=O)[C@]2(O)[C@@]3(C)[C@@H](O)CCC(C)(C)[C@@H]3[C@H](O)[C@H](OC(C)=O)[C@@]2(C)O1` [Forskolin, forskolin], the “Luminescence values expressed as RLUs” value ([1]; forskolin 0.004 μM) was 92 RLUs and 61 RLUs and 62 RLUs, the “Luminescence values expressed as RLUs” value ([1]; forskolin 0.04 μM) was 124 RLUs and 88 RLUs and 68 RLUs and the “Luminescence values expressed as RLUs” value ([1]; forskolin 400 μM) was 227 RLUs and 130 RLUs and 124 RLUs. For the same compound, the “Luminescence values expressed as RLUs” value ([2]; forskolin 0.004 μM) was 4221 RLUs and 4333 RLUs and 3899 RLUs, the “Luminescence values expressed as RLUs” value ([2]; forskolin 0.04 μM) was 7547 RLUs and 6804 RLUs and 7636 RLUs and the “Luminescence values expressed as RLUs” value ([2]; forskolin 0.4 μM) was 65001 RLUs and 62733 RLUs and 72165 RLUs. The “Luminescence values expressed as RLUs” value ([2]; forskolin 4 μM) was 310180 RLUs and 299010 RLUs and 303780 RLUs, the “Luminescence values expressed as RLUs” value ([2]; forskolin 40 μM) was 374090 RLUs and 378740 RLUs and 387970 RLUs and the “Luminescence values expressed as RLUs” value ([2]; forskolin 400 μM) was 205580 RLUs and 197090 RLUs and 195210 RLUs.
